The test addresses T1, SIRT1 (Homo sapiens, UniProt Q96EB6).
T1 sequence (Q96EB6 1-747): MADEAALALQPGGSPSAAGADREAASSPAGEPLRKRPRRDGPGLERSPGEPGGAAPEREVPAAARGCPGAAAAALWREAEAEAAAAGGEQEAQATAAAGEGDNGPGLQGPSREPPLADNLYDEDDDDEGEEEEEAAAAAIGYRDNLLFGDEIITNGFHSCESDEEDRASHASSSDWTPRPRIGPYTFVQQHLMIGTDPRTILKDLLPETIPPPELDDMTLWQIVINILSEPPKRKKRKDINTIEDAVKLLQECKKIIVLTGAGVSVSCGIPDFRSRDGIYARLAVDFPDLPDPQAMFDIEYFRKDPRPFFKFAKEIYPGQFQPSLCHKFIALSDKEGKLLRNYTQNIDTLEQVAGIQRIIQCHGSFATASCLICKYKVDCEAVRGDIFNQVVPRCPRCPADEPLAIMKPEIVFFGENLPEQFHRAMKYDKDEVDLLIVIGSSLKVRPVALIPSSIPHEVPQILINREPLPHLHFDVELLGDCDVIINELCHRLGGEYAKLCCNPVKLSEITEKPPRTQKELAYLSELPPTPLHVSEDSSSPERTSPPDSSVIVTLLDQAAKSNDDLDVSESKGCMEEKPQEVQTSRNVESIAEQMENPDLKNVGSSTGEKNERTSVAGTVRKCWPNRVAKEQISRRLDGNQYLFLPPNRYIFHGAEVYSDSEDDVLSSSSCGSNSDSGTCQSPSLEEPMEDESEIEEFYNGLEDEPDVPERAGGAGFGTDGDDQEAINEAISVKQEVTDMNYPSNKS
As to the kind of experiment: Trp mass spectrometry assay (SIRT1 activation). In kind it is biochemical. The settings on record: for Emax: percent maximum fold activation of SIRT1, read-out: Tryp % Fold Act. The essentials: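 N-His-tagged SIRT1 (10 nM), expressed in E. coli, was incubated with 0.5 μM Ac-RHKK(Ac)W-NH2 peptide and 120 μM NAD+ for 25 min at 25 °C in HEPES pH 7.5 with […]. The reaction was stopped with formic acid and O-acetyl-ADP-ribose or deacetylated peptide was quantified by mass spectrometry. Results are given as EC1.5 and percent maximal activation relative to DMSO control.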

Setting [1] is: concentration of test compound that results in 150% activation of SIRT1, Trp peptide substrate.
Where [2] appears, read: Trp mass spectrometry assay, EC1.5 = concentration of test compound that results in 150% activation of SIRT1.
The mark [3] stands for this setting: Trp mass spectrometry assay, EC1.5 = concentration giving 150% activation of SIRT1.

Where two headings read alike, the source gives them in different places. Bounds are passed on as bounds.

As for `O=C(Nc1cccc(-c2cnco2)c1)N1c2nc(-c3cccc(Cl)c3)ccc2N2CC[C@@H]1C2` [Example 235], under setting [1], the “Tryp AVG EC1.5 (μM)” value was “A (EC1.5<1 μM)”. In addition, the Emax (Trp peptide substrate) was no less than 150%.

`O=C(Nc1ccncc1)N1c2nc(-c3ccnc(N4CC[C@H](F)C4)c3)ccc2N2CC[C@H]1C2` [Example 422]: under setting [1], the “Tryp AVG EC1.5 (μM)” value was “A (EC1.5<1 μM)”. For the same compound, the Emax (Trp peptide substrate) is no less than 150%.

Consider `O=C(Nc1ccccn1)N1c2nc(-c3cccc(Cl)c3)ccc2N2CCC1CC2` [Example 533], for which, under setting [1], the “Tryp AVG EC1.5 (μM)” value was “B (EC1.5 1-25 μM)”. Also, under “Trp peptide substrate”, the Emax was no less than 150%.

As for `COc1cccc(-c2ccc3c(n2)N(C(=O)Nc2ccccn2)[C@@H]2CCN3C2)c1` [Example 219], under setting [1], the “Tryp AVG EC1.5 (μM)” value is recorded as “B (EC1.5 1-25 μM)”. Moreover, under “Trp peptide substrate”, the Emax was no less than 150%.

As for `Cc1cnccc1NC(=O)N1c2nc(C3CCCC(C(F)(F)F)C3)ccc2N2CC[C@H]1C2` (stereo partly shown) [Example 100], the “Tryp AVG EC1.5 (μM)” value under setting [2] is reported as “B (EC1.5 1-25 μM)”. The Emax (Trp mass spectrometry assay) is no less than 150%.

Regarding `O=C(Nc1cccc(-c2cnco2)c1)N1c2nc(-c3cncc(F)c3)ccc2N2CC[C@H]1C2` [Example 722], the “Tryp AVG EC1.5 (μM)” value under setting [3] is reported as “A (EC1.5<1 μM)”. Further, under “Trp mass spectrometry assay”, the Emax is no less than 150%.

With `O=C(Nc1cncc(F)c1)N1c2nc(-c3cncc(C(F)(F)F)c3)ccc2N2C[C@@H](O)[C@H]1C2` [Example 691], the “Tryp AVG EC1.5 (μM)” value under setting [3] is “B (EC1.5 1-25 μM)”. In addition, the Emax (Trp mass spectrometry assay) is no less than 150%.

For the compound `O=C(Nc1cncc(F)c1)N1c2nc(-c3cccc(C(F)(F)F)c3)ccc2N2C[C@@H](O)[C@H]1C2` [Example 630], the “Tryp AVG EC1.5 (μM)” value under setting [3] is “A (EC1.5<1 μM)”. Also, the Emax (Trp mass spectrometry assay) was no less than 150%.

Regarding `O=C(Nc1cncc(F)c1)N1c2nc(C3CCCC(C(F)(F)F)C3)ccc2N2CC[C@H]1C2` (stereo partly shown) [Example 145], under setting [2], the “Tryp AVG EC1.5 (μM)” value is listed as “A (EC1.5<1 μM)”. For the same compound, under “Trp mass spectrometry assay”, the Emax is no less than 150%.

With `O=C(Nc1cncc(F)c1)N1c2nc(-c3cccc(Cl)c3)ccc2N2CC[C@@H]1C2` [Example 218], the “Tryp AVG EC1.5 (μM)” value under setting [1] is given as “A (EC1.5<1 μM)”. In addition, under “Trp peptide substrate”, the Emax was no less than 150%.

On to `N#Cc1cncc(-c2ccc3c(n2)N(C(=O)Nc2ccccn2)[C@H]2CCCN3C2)c1` [Example 557], for which the “Tryp AVG EC1.5 (μM)” value under setting [1] is listed as “A (EC1.5<1 μM)”. Besides, the Emax (Trp peptide substrate) was no less than 150%.

Consider `O=C(Nc1cccc(-c2cnco2)n1)N1c2nc(-c3cccc(C(F)(F)F)c3)ccc2N2CCC1CC2` [Example 596], for which the “Tryp AVG EC1.5 (μM)” value under setting [1] is on record as “A (EC1.5<1 μM)”. In addition, for the setting “Trp peptide substrate”, the Emax was no less than 150%.

In the case of `Cc1cccnc1NC(=O)N1c2nc(-c3cccc(Cl)c3)ccc2N2CC[C@H]1C2` [Example 106], the “Tryp AVG EC1.5 (μM)” value under setting [2] is “C (EC1.5>25 μM)”. Moreover, the Emax (Trp mass spectrometry assay) is no less than 150%.

With `COc1cc(NC(=O)N2c3nc(-c4cccc(C(F)(F)F)c4)ccc3N3C[C@@H](O)[C@H]2C3)nc(OC)n1` [Example 664], under setting [3], the “Tryp AVG EC1.5 (μM)” value is listed as “B (EC1.5 1-25 μM)”. Moreover, where the note is “Trp mass spectrometry assay”, the Emax was no less than 150%.

Consider `N#Cc1cccc(-c2ccc3c(n2)N(C(=O)Nc2cccnc2)[C@H]2CCN3C2)c1` [Example 180], for which, under setting [2], the “Tryp AVG EC1.5 (μM)” value is listed as “A (EC1.5<1 μM)”. In addition, for the setting “Trp mass spectrometry assay”, the Emax was no less than 150%.

On to `NC(=O)c1cncc(-c2ccc3c(n2)N(C(=O)Nc2ccccn2)[C@H]2CCN3C2)c1` [Example 371], for which the “Tryp AVG EC1.5 (μM)” value under setting [1] is reported as “B (EC1.5 1-25 μM)”. Moreover, the Emax (Trp peptide substrate) is no less than 150%.

`COc1cc(-c2cccc(Cl)c2)nc2c1N1CC[C@@H](C1)N2C(=O)Nc1cnccn1` [Example 396]: the “Tryp AVG EC1.5 (μM)” value under setting [1] is “A (EC1.5<1 μM)”. Further, the Emax (Trp peptide substrate) was no less than 150%.

On to `O=C(Nc1ccncc1F)N1c2nc(-c3cccc(N4CCCC4)c3)ccc2N2CC[C@H]1C2` [Example 150], for which, under setting [2], the “Tryp AVG EC1.5 (μM)” value was “A (EC1.5<1 μM)”. Also, the Emax (Trp mass spectrometry assay) is no less than 150%.

Consider `Cn1cc(NC(=O)N2c3nc(-c4cccc(N5CCCC5)c4)ccc3N3CC[C@H]2C3)cn1` [Example 199], for which the “Tryp AVG EC1.5 (μM)” value under setting [2] is listed as “B (EC1.5 1-25 μM)”. The Emax (Trp mass spectrometry assay) is no less than 150%.

Consider `O=C(Nc1cnccn1)N1c2nc(-c3cccc(C(F)(F)F)n3)ccc2N2CC[C@H]1C2` [Example 338], for which the “Tryp AVG EC1.5 (μM)” value under setting [1] is reported as “B (EC1.5 1-25 μM)”. Where the note is “Trp peptide substrate”, the Emax was no less than 150%.

Values taken from patent publication US9765075B2, “Substituted bridged urea analogs as sirtuin modulators” (GLAXOSMITHKLINE LLC, priority 2013, dated 2017).
